# From ChEMBL document CHEMBL5390267, “Selective Activation of a TRPC6 Ion Channel Over TRPC3 by Metalated Type-B Polycyclic Polyprenylated Acylphloroglucinols” (J Med Chem, 2023)
# Activity calls are given as the source filed them. The calls are words filed in the database; no cut-off is given here.
# Columns and labels:
# PC12 = assay: Agonist activity at TRPC6 channel in rat PC12 cells assessed as induction of intracellular calcium level at 10 uM by FLIPR calcium 6 assay; assay type: cell-based; details: time 2.0 hrs
# [1] = target: T1, Short transient receptor potential channel 6 (Homo sapiens) (UniProt Q9Y210); assay: Agonist activity at […] TRPC6 channel in HEK293 cells assessed as intracellular calcium influx stimulation at 10 uM by Fura-2 AM staining based calcium influx assay; assay type: cell-based; details: filed as agonist
# T1 sequence (whole entry): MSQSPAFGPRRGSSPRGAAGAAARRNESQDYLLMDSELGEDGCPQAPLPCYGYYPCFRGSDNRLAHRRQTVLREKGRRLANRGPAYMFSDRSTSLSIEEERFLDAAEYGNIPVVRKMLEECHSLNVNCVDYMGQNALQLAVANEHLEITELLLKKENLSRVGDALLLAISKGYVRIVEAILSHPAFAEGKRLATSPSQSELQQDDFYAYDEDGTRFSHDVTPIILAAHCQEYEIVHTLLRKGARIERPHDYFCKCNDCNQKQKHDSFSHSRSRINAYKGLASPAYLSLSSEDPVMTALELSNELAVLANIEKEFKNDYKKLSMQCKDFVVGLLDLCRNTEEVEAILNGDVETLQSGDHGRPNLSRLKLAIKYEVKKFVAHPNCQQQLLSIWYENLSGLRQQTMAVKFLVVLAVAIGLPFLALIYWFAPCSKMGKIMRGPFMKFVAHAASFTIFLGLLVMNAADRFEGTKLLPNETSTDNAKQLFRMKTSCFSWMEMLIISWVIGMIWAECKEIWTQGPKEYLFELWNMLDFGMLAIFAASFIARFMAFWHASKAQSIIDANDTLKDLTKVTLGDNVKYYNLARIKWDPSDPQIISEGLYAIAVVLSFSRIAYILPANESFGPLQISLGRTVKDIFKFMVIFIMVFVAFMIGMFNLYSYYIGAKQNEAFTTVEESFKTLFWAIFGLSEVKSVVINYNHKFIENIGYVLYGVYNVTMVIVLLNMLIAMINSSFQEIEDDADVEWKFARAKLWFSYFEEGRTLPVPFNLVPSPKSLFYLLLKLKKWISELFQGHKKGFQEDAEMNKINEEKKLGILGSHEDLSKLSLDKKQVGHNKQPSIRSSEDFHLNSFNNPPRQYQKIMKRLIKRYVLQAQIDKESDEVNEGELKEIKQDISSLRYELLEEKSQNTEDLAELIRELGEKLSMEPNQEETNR
# [2] = target: T1, Short transient receptor potential channel 6 (Homo sapiens); assay: Agonist activity at TRPC6 channel in HEK293 cells assessed as intracellular calcium influx stimulation at 1 to 10 uM by Fura-2 AM staining based calcium influx assay; assay type: cell-based; details: filed as agonist, dose 1-10 µM
# [3] = Photostability of compound assessed as compound decomposition at 5 mg incubated for 1 week under natural sun light-irradiation and air; assay type: physicochemical; details: 168 h, time 1 weeks
# [4] = Metabolic stability in mouse liver microsomes assessed as intrinsic clearance at 1 uM incubated for 120 mins in presence of NADPH by HPLC-MS/MS analysis; assay type: ADME, Microsome; details: read-out: CLH
# [5] = Kinetic solubility of compound in 1% DMSO/PBS incubated for 5 mins under shaking condition by turbidimetric method; assay type: physicochemical; details: read-out: Kinetic_solubility
# [6] = Stability in CD-1 mouse plasma assessed as half life at 1 uM incubated for 15 mins by HPLC-MS/MS analysis; assay type: ADME, cell-free
# [7] = Metabolic stability in mouse liver microsomes assessed as half life at 1 uM incubated for 120 mins in presence of NADPH by HPLC-MS/MS analysis; assay type: ADME, Microsome
# [8] = target: T2, Short transient receptor potential channel 3 (Homo sapiens) (UniProt Q13507); assay: Agonist activity at […] TRPC3 channel in HEK293 cells assessed as intracellular calcium influx stimulation at 10 uM by Fura-2 AM staining based calcium influx assay; assay type: cell-based; details: filed as agonist
# T2 sequence (whole entry): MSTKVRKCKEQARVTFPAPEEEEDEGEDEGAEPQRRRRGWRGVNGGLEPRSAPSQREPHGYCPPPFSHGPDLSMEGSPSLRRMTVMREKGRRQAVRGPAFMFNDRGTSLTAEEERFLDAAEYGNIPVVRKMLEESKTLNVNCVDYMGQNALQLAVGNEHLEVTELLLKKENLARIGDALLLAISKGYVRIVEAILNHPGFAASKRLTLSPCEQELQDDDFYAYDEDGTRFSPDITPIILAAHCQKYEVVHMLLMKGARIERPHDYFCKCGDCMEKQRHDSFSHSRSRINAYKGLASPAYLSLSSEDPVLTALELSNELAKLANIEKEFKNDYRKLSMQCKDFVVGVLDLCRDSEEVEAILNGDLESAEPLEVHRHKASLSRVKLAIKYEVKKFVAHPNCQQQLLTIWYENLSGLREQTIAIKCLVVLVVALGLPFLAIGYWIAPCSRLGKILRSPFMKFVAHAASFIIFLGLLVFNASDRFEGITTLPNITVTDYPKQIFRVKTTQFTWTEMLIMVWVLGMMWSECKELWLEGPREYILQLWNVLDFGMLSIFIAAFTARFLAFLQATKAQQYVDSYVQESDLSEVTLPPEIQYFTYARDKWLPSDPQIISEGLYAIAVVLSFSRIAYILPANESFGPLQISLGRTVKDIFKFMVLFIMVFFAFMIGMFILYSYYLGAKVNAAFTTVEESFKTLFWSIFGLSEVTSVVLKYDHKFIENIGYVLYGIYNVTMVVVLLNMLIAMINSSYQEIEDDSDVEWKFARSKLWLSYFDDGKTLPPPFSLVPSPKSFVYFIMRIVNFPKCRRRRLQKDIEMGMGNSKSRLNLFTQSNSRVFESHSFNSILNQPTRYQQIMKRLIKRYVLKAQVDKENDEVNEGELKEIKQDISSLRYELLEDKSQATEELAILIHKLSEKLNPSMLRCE
smiles,measurement,setting,value
CC(C)=CCC[C@]1(C)[C@@H](CC=C(C)C)C[C@]2(CC=C(C)C)C(=O)C(CC=C(C)C)=C(O)[C@@]1(C(=O)C(C)C)C2=O,Activity,PC12; filed as agonist,Active
same,Activity,[1],Active
C=CC[C@@]12C[C@H](CC=C(C)C)C(C)(C)[C@@](CC=C)(C(=O)C(C(C)=O)=C1O)C2=O [listing 1 of 2 here],Activity,[2],Active
same,Activity,PC12; filed as agonist,Active
same,Activity,[1],Active
C=CC[C@@]12C[C@H](CC=C(C)C)C(C)(C)[C@@](CC=C)(C(=O)C(C(C)=O)=C1[O-])C2=O.[Na+],Stability,[3],Stable
same,microsomal CLint at 1 µM,[4],44.7 µL/min/mg
same,solubility kinetic at 5 min,[5],> 200 µM
same,half-life at 1 µM,[6],2.57 h
same,half-life at 1 µM,[7],0.525 h
C=CC[C@@]12C[C@H](CC=C(C)C)C(C)(C)[C@@](CC=C)(C(=O)C(C(C)=O)=C1O)C2=O [listing 2 of 2 here],solubility kinetic at 5 min,[5],49.1 µM
CC(=O)C1=C(O)[C@@]2(CC=C(C)C)C[C@H](CC=C(C)C)C(C)(C)[C@@](CC=C(C)C)(C1=O)C2=O,Activity,PC12,inactive
CCCCCCCC/C=C\CCCCCCCC(=O)OC[C@H](CO)OC(C)=O,Activity,[1],Active
same,Activity,[8],Active
CC(C)=CC[C@H]1C[C@@]2(CC=C(C)C)C(=O)[C@](CC=C(C)C)(C(=O)C(C(=O)c3ccccc3)=C2O)C1(C)C,Activity,PC12,inactive
